Data set [1] relates to cortical neurons (neuronal survival). The procedure: S-nitrosocysteine was added as a source of NO.cndot. to cerebrocortical cultures (Lei et al., (1992) Neuron 8:1087-1099; Stamler et al., (1992) Science 258:1898-1902).
Peroxynitrite leads to lipid peroxidation and massive oxidation of sulfhydryls (Radi et al., (1991) J. Biol. Chem. 266:4244-4250; Radi et al., (1991) Arch. Biochem. Biophys. 288:481-487).
Values are expressed as mean+s.e.m. (n=9). Statistical comparisons were performed by an analysis of variance followed by a Scheffe multiple comparison of means (*, P<0.01 compared to control; **, P<0.05 compared to control; .dagger., P<0.01 compared to nitroso compound+SOD/catalase).
Specifically, the data in FIG. 7 were generated using mixed neuronal and glial cortical cultures from neonatal rats, as described previously (Lei, et al., (1992) Neuron 8:1087-1099). In at least three separate experiments, triplicate cultures were incubated overnight in Earle's buffered saline solution (EBSS) containing various concentrations of SNOC, peroxynitrite, SOD, catalase, or glutamate. […] The culture fluid was assayed for […] (LDH) as an indicator of neuronal survival by measuring the absorbance at 450 nm (Koh et al., (1987) J. Neurosci. Meth. 20:83-90). The cultures were also scored for neuronal viability by cell counting, generally with 0.2% trypan blue, after fixation in 2.5% glutaraldehyde, as described above. Neurons from cultures grown on 15 mm diameter cover slips were counted in a masked fashion in ~30 microscopic fields at 200 x.

Data set [2] deals with NMDA receptor (rat cortical neurons in culture). Briefly: Digital fura-2 imaging of NMDA-evoked intracellular [Ca2+] in cultured cortical neurons. It counts as cell-based, rat (Sprague-Dawley). The following applies: after 2 mM DTT; 3 min exposure to 100 μM SNOC; NMDA 50 μM; FIG. 5A, P<0.01.
A further data set in a line: physchem. It counts as physicochemical. Conditions: pH 7.4.
Data set [3] concerns quisqualate (QUIS)-elicited current (rat retinal ganglion cells). Kind of data set: Whole-cell patch clamp of quisqualate-elicited current on rat retinal ganglion cells. Conditions: 12 μM memantine, 5 μM quisqualate. It counts as cell-based, rat (Long-Evans). The source says: (§1) FIGS. 4A'-4B' depict evidence for open-channel block of NMDA-elicited whole-cell current by memantine (MEM) on rat retinal ganglion cells. […] A rapid application system was used to administer the drugs, and a fast washout method was used in the experiments shown in FIGS. 4A' and 4B'.
(§2) For retinal ganglion cell labeling, dissociation, and culture, we used techniques that have been detailed elsewhere (Leifer et al. (1984) Science 224:303-306). […] Two to six days later, the animals were killed by decapitation. Following enucleation, the retinas were dissociated with mild treatment with the enzyme papain. The retinal cells were than plated onto glass coverslips coated with poly-L-lysine in 35 mm tissue culture dishes. The growth medium was Eagle's minimum essential medium supplemented with 0.7% (w/v) methylcellulose, 0.3% (w/v) glucose, 2 mM glutamine, 5% (v/v) rat serum, and 1 μg/ml gentamicin. Retinal ganglion cells were identified by the presence of the retrogradely transported dye granular blue.
(§3) Whole-cell and single-channel recordings of rat retinal ganglion cells were performed as described in detail elsewhere (Hamill et al., 1981; Lipton and Tauck, 1987). […]
In general terms: The patch-clamp technique gives a direct electrical read-out from membranes.

For data set [4], the system named is NMDA receptor (rat retinal ganglion cells). Kind of data set: Whole-cell patch clamp of NMDA-elicited current on rat retinal ganglion cells. It counts as cell-based, rat (Long-Evans).
Description: as §1, §2
Whole-cell and single-channel recordings of rat retinal ganglion cells were performed as described in detail elsewhere (Hamill et al., 1981; Lipton and Tauck, 1987). The neurons were continuously superfused in a chamber at 27°-29° C. with a bath solution composed of (in mM) NaCl, 137.6; KCl, 5.8; CaCl2, 2.5; HEPES, 5; glucose, 22.2; with phenol red, 0.001% (v/v); glycine, 1 μM; pH 7.2; and no added magnesium. The patch pipettes were filled with an intracellular solution containing (in mM) CsCl, 120; tetraethylammonium chloride, 20; HEPES, 10; EGTA, 2.25; CaCl2, 1; and MgCl2, 2; and sometimes with 3 mM Mg-ATP to minimize rundown in prolonged recordings (pH 7.2). […]. Solution changes could be achieved rapidly, within 50-100 msec, by moving the array of constantly flowing pipette tips relative to the cell with a micromanipulator driver. A control pipette containing bath solution and 1 μM TTX was used to wash out NMDA-inducedcurrent rapidly.

Data set [5] concerns NMDA antagonist (MK-801) binding to post-mortem human brain homogenates. Conditions: Kornhuber et al. 1989; cited from earlier work.
In data set [6] the test system is kainate (KA)-elicited current (rat retinal ganglion cells). Kind of data set: Whole-cell patch clamp of kainate-elicited current on rat retinal ganglion cells. It counts as cell-based, rat (Long-Evans). The following applies: 12 μM memantine, 50 μM kainate.
Description: as §1, §2, §3

In data set [7] the test system is retinal ganglion cells (NMDA receptor-mediated neurotoxicity). Kind of data set: Retinal ganglion cell survival assay (endogenous glutamate-related toxin, high calcium, low magnesium medium). It counts as cell-based, rat (Long-Evans). The following applies: FIG. 3'. The procedure: To test amantadine derivatives for their ability to prevent neurotoxicity, neuronal cell death may be assayed as follows. […] Two to 6 days later, the animals are sacrificed by decapitation and enucleated, and the retinas quickly removed. The retinas are dissociated by mild treatment with the enzyme papain and cultured in Eagle's minimum essential medium (MEM, catalog #1090, Gibco, Grand Island, N.Y.) supplemented with 0.7% (w/v) methylcellulose, 0.3% (w/v) glucose, 2 mM glutamine, 1 μg/ml gentamicin, and 5% (v/v) rat serum, as described in Lipton et al., J. Physiol. 385:361, 1987. The cells are plated onto 75 mm^2 glass coverslips coated with poly-L-lysine in 35 mm tissue culture dishes. […]
To perform the viability test, the cell-culture medium is exchanged for physiological saline containing 0.0005% fluorescein diacetate for 15-45 s, and then cells are rinsed in saline. […] In contrast, the viable retinal ganglion cells display not only a blue color in the UV light but also a yellow-green fluorescence with filters appropriate for fluorescein. Thus, the use of two exchangeable fluorescence filter sets permits the rapid determination of viable ganglion cells in the cultures. […]

In a further data set the test system is NMDA receptor channels. The following applies: Bormann 1989; cited from earlier work.

Entries after “also recorded” stand apart in the source; their conditions may differ.

The half-life is the time needed for the level to fall by half in the phase considered. High values mean slow loss, low ones fast loss. Turning to `N[C@@H](CSN=O)C(=O)O` [SNOC, S-nitrosocysteine], in data set [1], the “Killing of cortical neurons” value is recorded as “dose-dependent killing of cortical neurons” and the Maximally-lethal concentration amounted to 200 µM. In data set [2], the “Effect on NMDA-evoked [Ca2+]i response (SNOC experiment)” value is given as “recovered only slightly”. The half-life in the data set “physchem” is ~30 s.

`CC12CC3CC(C)(C1)CC(N)(C3)C2` [memantine, 1-amino-3,5-dimethyl adamantine]: the “Effect on quisqualate-elicited current” value in data set [3] is “did not affect the current”. Moreover, in data set [4], the “Kinetics for blocking/unblocking NMDA receptor-mediated response” value is listed as “relatively rapid”. Also, the “Effect of memantine when administered alone” value in data set [4] (12 μM memantine alone, -60 mV, FIG. 4b' left) is recorded as “lack of effect”. Further, the “Effect on NMDA-induced current” value in data set [4] (12 μM memantine, 200 μM NMDA, -50 and +50 mV) is given as “blocking effect”. In data set [4] (12 μM memantine, 200 μM NMDA, -60 mV, n=17), the “Inhibition of response to NMDA” value is 90%. In data set [5], the “Inhibition of binding of MK-801” value is listed as “inhibits the binding of an NMDA antagonist (MK-801)”. Moreover, the “Effect on kainate-elicited current” value in data set [6] is on record as “did not affect the current”. Moreover, the minimal effective concentration in data set [7] (Rattus norvegicus, compared to control, read-out: Concentration at which increased neuronal survival reached statistical significance) stood at 6 µM. For the same compound, in data set [7] (memantine 1-25 μM, 16-20 h, 37° C.), the “Effect on retinal ganglion cell death from endogenous glutamate-related toxin” value is “prevented retinal ganglion cell death from the endogenous glutamate-related toxin in a dose-dependent manner; also recorded: blocks neuronal cell death mediated by excessive stimulation of the NMDA receptor”. In addition, the “Block of NMDA receptor channels” value in the data set with NMDA receptor channels is recorded as “blocks NMDA receptor channels”.

The record behind these values is patent publication US5747545A, “Method of preventing NMDA receptor complex-mediated Neuronal damage” (priority 1995, dated 1998).
